# In ChEMBL document CHEMBL5608189, “Design and synthesis of unique indole-benzosulfonamide oleanolic acid derivatives as potent antibacterial agents against MRSA” (Eur J Med Chem, 2024):
# Active and inactive are the calls of the source. The calls are words filed in the database; no cut-off is given here.
# Tests used:
# Staphylococcus aureus [1] = test: Induction of intracellular ROS accumulation in methicillin-resistant Staphylococcus aureus assessed as number of fluorescence cells at 1 times MIC incubated for 6 hrs by DCFH-DA staining based flow cytometry analysis (reference value: 3.88)
# Staphylococcus aureus [2] = test: Induction of morphological changes in methicillin-resistant Staphylococcus aureus assessed as disruption of cell membrane integrity at 8 times MIC incubated for 8 hrs by SEM analysis; type: functional, organism-based
# [3] = Hemolytic activity in rabbit red blood cells assessed as hemolytic rate at 128 times MIC measured after 1 hr by absorbance based method relative to control; type: toxicity, cell-based, Oryctolagus cuniculus, Erythrocyte; conditions: rabbit red blood cells (erythrocytes), read-out: Activity
# Staphylococcus aureus [4] = test: Antibacterial activity against Staphylococcus aureus ATCC 6538 assessed as inhibition of bacterial growth at 2 to 4 times MIC measured every 2 hrs for 24 hrs by time kill assay relative to control; type: functional
# Staphylococcus aureus [5] = test: Induction of intracellular ROS accumulation in methicillin-resistant Staphylococcus aureus assessed as number of fluorescence cells at 4 times MIC incubated for 6 hrs by DCFH-DA staining based flow cytometry analysis (reference value: 3.88)
# Cell membrane = test: Disruption of cell membrane integrity in methicillin-resistant Staphylococcus aureus assessed as rupture of cell membrane at 8 times MIC incubated for 8 hrs by TEM analysis; type: cell membranes
# Staphylococcus aureus [6] = test: Induction of intracellular ROS accumulation in methicillin-resistant Staphylococcus aureus assessed as number of fluorescence cells at 2 times MIC incubated for 6 hrs by DCFH-DA staining based flow cytometry analysis (reference value: 3.88)
# Staphylococcus aureus [7] = test: Antibacterial activity against Staphylococcus aureus ATCC 6538 measured after 24 hrs by susceptibility assay; type: functional
compound,measurement,setting,value
CC1(C)CC[C@]2(C(=O)NS(=O)(=O)c3ccc(Cl)cc3)CC[C@]3(C)C(=CC[C@@H]4[C@@]5(C)Cc6c([nH]c7c(C(=O)O)cccc67)C(C)(C)[C@@H]5CC[C@]43C)[C@@H]2C1,Activity,Staphylococcus aureus [1],1.96
same,Activity,Staphylococcus aureus [2],Active
same,"hemolysis at 1 h, 128 times MIC",[3],< 5%
same,inhibition (INH),Staphylococcus aureus [4],100%
same,Activity,Staphylococcus aureus [5],1.91
same,Activity,Cell membrane,Active
same,Activity,Staphylococcus aureus [6],1.57
same,MIC,Staphylococcus aureus [7],1 µM
